In patent US6469052B2, “Compounds for the photodecontamination of pathogens in blood” (Cerus Corporation, priority 1993, dated 2002):

Tests used:
HIV-1 = conditions: concentrations of 64 μM of compound or higher
Method: Pathogen inactivation efficiency of several compounds of the present invention was evaluated by examining the ability of the compounds to inactivate cell-free virus (HIV). Inactivation of cell-free HIV was performed as follows.
As in the R17 assay, small aliquots of the compounds listed in TABLES 10 and 11, below, at the concentrations listed in the table, were added to stock HIV-1 to a total of 0.5 mL. The stock HIV (10^5-10^7 plaque forming units/mL) was in DMEM/15% FBS. […] Controls included HIV-1 stock only, HIV-1 plus UVA only, and HIV-1 plus the highest concentration of each psoralen tested, with no UVA. Post irradiation, all samples were stores frozen at −70° C. until assayed for infectivity by a microtiter plaque assay. Aliquots for measurement of residual HIV infectivity in the samples treated with a compound of the present invention were withdrawn and cultured.
Residual HIV infectivity was assayed using an MT-2 infectivity assay. […] After 24 to 48 hours, the red fluorescence-stained microplaques were visualized by placing the plates on an 8,000 μW/cm^2 304 nm UV light box (Fotodyne, Inc., New Berlin, Wis.). The plaques were counted at a magnification of ×20 to ×25 through a stereomicroscope.

[1] = tested on: Salmonella typhimurium TA1537; assay: Ames assay (dark mutagenicity), strain TA1537; conditions: TA1537 in the presence of S9
Excerpt: The second property that is important in testing a compound for use in methods of the present invention is mutagenicity. The most widely used mutagen/carcinogen screening assay is the Ames test. This assay is described by D. M. Maron and B. N. Ames in Mutation Research 113: 173 ( 1983) and a specific screen is described in detail in Example 17, below. The Ames test utilizes several unique strains of Salmonella typhimurium that are histidine- dependent for growth and that lack the usual DNA repair enzymes. The frequency of normal mutations that render the bacteria independent of histidine (i.e., the frequency of spontaneous revertants) is low. The test allows one to evaluate the impact of a compound on this revertant frequency.
In this example the compounds of the present invention are tested for their dark mutagenicity using an Ames assay. The procedures used for the Salmonella mutagenicity test as described in detail by Maron and Ames were followed exactly. Maron, D. M. and B. N. Ames, Mutation Research 113: 173 ( 1983). A brief description for each procedure is given here. The tester strains TA97a, TA98, TA100, TA102, TA1537 and TA1538 were obtained from Dr. Ames. TA97a, TA98, TA1537 and TA1538 are frameshift tester strains. TA100 and TA102 are base-substitution tester strains. Upon receipt each strain was cultured under a variety of conditions to confirm the genotypes specific to the strains.
The first tests done with the strains were to determine the range of spontaneous reversion for each of the strains. With each mutagenicity experiment the spontaneous reversion of the tester strains to histidine independence was measured and expressed as the number of spontaneous revertants per plate. This served as the background controls.
For all experiments, the pre-incubation procedure was used. In this procedure one vial of each tester strain was thawed and 20 μL of this culture was added to 6 mL of Oxoid Nutrient Broth #2. This solution was allowed to shake for 10 hours at 37° C. In the pre-incubation procedure, 0.1 mL of this overnight culture was added to each of the required number of sterile test tubes. To half of the tubes 0.5 mL of a 10% S-9 solution containing Aroclor 1254 induced rat liver extract (Molecular Toxicology Inc., Annapolis, Md.), and MgCl2, KCl, glucose-6-phosphate, NADP, and sodium phosphate buffer (Sigma, St. Louis, Mo.) were added. To the other half of the tubes 0.5 mL of 0.2M sodium phospate buffer, pH 7.4, was used in place of the S-9 mixture (the -S9 samples). Finally 0.1 mL of the test solution containing either 0, 0.1, 0.5, 1, 5, 10, 50, 100, 250, or 500 μg/mL of the test compound was added. The 0.7 mL mixture was vortexed and then pre-incubated while shaking for 20 minutes at 37° C. After shaking, 2 mL of molten top agar supplemented with histidine and biotin were added to the 0.7 mL mixture and immediately poured onto a minimal glucose agar plate (volume of base agar was 20 mL). The top agar was allowed 30 minutes to solidify and then the plates were inverted and incubated for 44 hours at 37° C. After incubation the number of revertant colonies on each plate were counted. […] (“n” represents the number of replicates performed for each data point.)
Maron and Ames (1983) describe the conflicting views with regard to the statisical treatment of data generated from the test.

Compound	HIV inactivation activity compared with AMT (HIV-1)	concentration showing a response [1]
Cc1oc2c(C)c3oc(=O)cc(C)c3cc2c1COCCN [Compound 2, 4′-(4-amino-2-oxa)butyl-4,5′,8-trimethylpsoralen]	significantly more active than AMT	–
Cc1oc2c(C)c3oc(=O)cc(C)c3cc2c1CNCCCCN [Compound 6, 4′-(6-amino-2-aza)hexyl-4,5′,8-trimethylpsoralen]	–	50 μg/plate
